Data: the NIST ThermoML archive (doi:10.1016/j.tca.2019.05.006)
Numbers after ± are expanded uncertainties.

Assay: molar heat capacity at constant pressure
Conditions: 101.33 kPa, Crystal, DSC

[Cu+2].[O-2] [copper(II) oxide]
Conditions	molar heat capacity at constant pressure [J/K/mol]
300 K	44.4 ± 22
325 K	45.8 ± 28
350 K	46.8 ± 28
375 K	47.7 ± 22
400 K	48.5 ± 26
425 K	49.2 ± 24
450 K	49.7 ± 28
475 K	50.3 ± 24
500 K	50.8 ± 26
525 K	51.2 ± 28
550 K	51.6 ± 26
575 K	51.9 ± 26
600 K	52.3 ± 22
625 K	52.6 ± 26
650 K	52.9 ± 28
675 K	53.2 ± 28
700 K	53.5 ± 24
725 K	53.8 ± 26
750 K	54 ± 28
775 K	54.3 ± 26
800 K	54.5 ± 24
825 K	54.7 ± 24
